Measurements from US9872883B2, “Methods of producing anamorelin hydrochloride having controlled chloride content” (HELSINN HEALTHCARE SA, priority 2012, dated 2018).
≈ marks a conversion by molar mass, not a printed value. Structures can show the parent of a compound that is named as a salt. Blank lines part the entries; values can stand above or below the compound they belong to.

Legend:
Assay type in all cases: physicochemical
[1] = Long-term stability of batches having differing chloride contents, % increase in total impurities
Procedure: The long-term stability of three separate batches of anamorelin monohydrochloride (or composition comprising anamorelin monohydrochloride) having differing chloride contents were evaluated for stability at 25° C./60% relative humidity for one, two and three years, and 40° C./75% relative humidity for one, three and six months. The results are presented below in Table 3C. % Increase in Table 3C was calculated by the following formula. % Increase=(M−I)/I×100
I: initial total impurity (%)
M: measured total impurity (%) at specific time (e.g., 3 months, 6 month and so forth)

[2] = Stability testing for anamorelin dihydrochloride relative to the monohydrochloride and free base at 40° C./75% relative humidity
Procedure: Stability testing for anamorelin dihydrochloride relative to the monohydrochloride and anamorelin free base at 40° C./75% relative humidity is reported below in Table 3D. For the anamorelin dihydrochloride preparation, anamorelin free base was dissolved in ethyl acetate and a molar excess of hydrochloric acid in ethyl acetate was added into the mixture to precipitate anamorelin dihydrochloride. The resulting anamorelin dihydrochloride was filtered and dried (chloride content approximately 12.2%). HPLC Area % in Table 3D refers to the amount of converted value of anamorelin free base in samples.

[3] = Solubility test in distilled water (HPLC); conditions: distilled water (initial pH 7)
Procedure: A solution of standard curve was prepared to 356 μmol/L by diluting standard substance (anamorelin free base (quantitative value: 93.90%), 86.6 mmol/L, isopropyl acetate solution) with acetonitrile. In addition, a sample solution was prepared according to the process that test compound (about 100 mg) added into distilled water (10.00 g), the solution was mixed for 10 minutes at 50° C. and then was placed overnight, obtained suspension was filtered by syringe with filter (0.2 μm) and the filtrate (48.93 mg) was diluted with acetonitrile (10 mL). A solution of standard curve and a sample solution (each 5 μL) were determined by injecting into HPLC (GULLIVER1500 HPLC system, JASCO Corporation).

[4] = Stability testing of spray dried amorphous anamorelin monohydrochloride (Batch A), purity and impurities by HPLC; design: Impurity 1 / Impurity 2 / Impurity 3 / Impurity 4 / Impurity 5 / Impurity 6 / Impurity 7: unit not given here
Procedure: The purity of the anamorelin monohydrochloride (or composition comprising anamorelin monohydrochloride) was measured using high performance liquid chromatograph (HPLC) (Hewlett-Packard HP 1100 HPLC System, Agilent Technologies Inc.). The concentrated aqueous solution of anamorelin monohydrochloride A of example 1 was concentrated by spray drying using Niro QSD-3.6 (trade mark, GEA process engineering Inc.) to afford anamorelin monohydrochloride referred to as Batch A in Tables 2A and 2B) in an amorphous state. RRT refers to the relative retention time of the impurity versus anamorelin. In addition, the purity was converted into the amount of anamorelin free base within a sample without any other organic solvent since anamorelin monohydrochloride (or composition comprising anamorelin monohydrochloride) was dissolved in the solvent to be measured by HPLC condition.

SMILES: CN(C)N(C)C(=O)[C@@]1(Cc2ccccc2)CCCN(C(=O)[C@@H](Cc2c[nH]c3ccccc23)NC(=O)C(C)(C)N)C1 [5.6%]
% Increase in Total Impurities From T0 ([1]; 25° C./60% RH, 1 Y): 10%
% Increase in Total Impurities From T0 ([1]; 25° C./60% RH, 2 Y): 48%
% Increase in Total Impurities From T0 ([1]; 25° C./60% RH, 3 Y): 29%

SMILES: CN(C)N(C)C(=O)[C@@]1(Cc2ccccc2)CCCN(C(=O)[C@@H](Cc2c[nH]c3ccccc23)NC(=O)C(C)(C)N)C1 [5.9%]
% Increase in Total Impurities From T0 ([1]; 25° C./60% RH, 1 Y): 0%
% Increase in Total Impurities From T0 ([1]; 25° C./60% RH, 2 Y): 20%
% Increase in Total Impurities From T0 ([1]; 25° C./60% RH, 3 Y): 20%
% Increase in Total Impurities From T0 ([1]; 40° C./75% RH, 1 M): 0%
% Increase in Total Impurities From T0 ([1]; 40° C./75% RH, 3 M): 21%
% Increase in Total Impurities From T0 ([1]; 40° C./75% RH, 6 M): 17%

SMILES: CN(C)N(C)C(=O)[C@@]1(Cc2ccccc2)CCCN(C(=O)[C@@H](Cc2c[nH]c3ccccc23)NC(=O)C(C)(C)N)C1 [6.2%]
% Increase in Total Impurities From T0 ([1]; 25° C./60% RH, 1 Y): 85%
% Increase in Total Impurities From T0 ([1]; 25° C./60% RH, 2 Y): 114%
% Increase in Total Impurities From T0 ([1]; 25° C./60% RH, 3 Y): 100%
% Increase in Total Impurities From T0 ([1]; 40° C./75% RH, 1 M): 107%
% Increase in Total Impurities From T0 ([1]; 40° C./75% RH, 3 M): 100%
% Increase in Total Impurities From T0 ([1]; 40° C./75% RH, 6 M): 171%

SMILES: CN(C)N(C)C(=O)[C@@]1(Cc2ccccc2)CCCN(C(=O)[C@@H](Cc2c[nH]c3ccccc23)NC(=O)C(C)(C)N)C1 [6.3%]
% Increase in Total Impurities From T0 ([1]; 25° C./60% RH, 1 Y): 200%
% Increase in Total Impurities From T0 ([1]; 25° C./60% RH, 2 Y): 340%
% Increase in Total Impurities From T0 ([1]; 25° C./60% RH, 3 Y): 360%
% Increase in Total Impurities From T0 ([1]; 40° C./75% RH, 1 M): 140%
% Increase in Total Impurities From T0 ([1]; 40° C./75% RH, 3 M): 400%
% Increase in Total Impurities From T0 ([1]; 40° C./75% RH, 6 M): 500%

The next lines start with the values.

HPLC Area % ([2]; 1M): 98.2%
HPLC Area % ([2]; 3M): 97.1%
HPLC Area % ([2]; I.T.): 98.9%
long-term stability (in words) ([2]; relative to the monohydrochloride): easy to be changed
SMILES: CN(C)N(C)C(=O)[C@@]1(Cc2ccccc2)CCCN(C(=O)[C@@H](Cc2c[nH]c3ccccc23)NC(=O)C(C)(C)N)C1 [Anamorelin Di-HCl, reference compound]

solubility [3]: 0.04 mg/mL (≈ 73.2 µM)
HPLC Area % ([2]; 1M): 99.9%
HPLC Area % ([2]; 3M): 99.7%
HPLC Area % ([2]; I.T.): 99.7%
SMILES: CN(C)N(C)C(=O)[C@@]1(Cc2ccccc2)CCCN(C(=O)[C@@H](Cc2c[nH]c3ccccc23)NC(=O)C(C)(C)N)C1 [Anamorelin Free Base, (3R)1-(2-methylalanyl-D-tryptophyl)-3-(phenylmethyl)-3-piperidinecarboxylic acid 1,2,2trimethylhydrazide]

solubility [3]: >333 mg/mL
stability (in words) ([4]; six months under each set of conditions): nearly unchanged
HPLC Area % ([2]; 1M, listed as Anamorelin Mono-HCl): 99.3%
HPLC Area % ([2]; 3M, listed as Anamorelin Mono-HCl): 99.2%
HPLC Area % ([2]; I.T., listed as Anamorelin Mono-HCl): 99.9%
long-term stability (in words) ([1]; three years, 25° C./60% RH): nearly unchanged
SMILES: CN(C)N(C)C(=O)[C@@]1(Cc2ccccc2)CCCN(C(=O)[C@@H](Cc2c[nH]c3ccccc23)NC(=O)C(C)(C)N)C1 [anamorelin monohydrochloride]

Impurity 1 ([4]; 25° C./60% RH, 1 month): <0.05
Impurity 2 ([4]; 25° C./60% RH, 1 month): <0.05
Impurity 3 ([4]; 25° C./60% RH, 1 month): <0.05
Impurity 4 ([4]; 25° C./60% RH, 1 month): <0.05
Impurity 5 ([4]; 25° C./60% RH, 1 month): <0.05
Impurity 6 ([4]; 25° C./60% RH, 1 month): <0.05
Impurity 7 ([4]; 25° C./60% RH, 1 month): <0.05
anamorelin (HPLC purity) ([4]; 25° C./60% RH, 1 month): 100.0%
Impurity 1 ([4]; 25° C./60% RH, 3 months): <0.05
Impurity 2 ([4]; 25° C./60% RH, 3 months): <0.05
Impurity 3 ([4]; 25° C./60% RH, 3 months): <0.05
Impurity 4 ([4]; 25° C./60% RH, 3 months): <0.05
Impurity 5 ([4]; 25° C./60% RH, 3 months): <0.05
Impurity 6 ([4]; 25° C./60% RH, 3 months): <0.05
Impurity 7 ([4]; 25° C./60% RH, 3 months): <0.05
anamorelin (HPLC purity) ([4]; 25° C./60% RH, 3 months): 100.0%
Impurity 1 ([4]; 25° C./60% RH, 6 months): <0.05
Impurity 2 ([4]; 25° C./60% RH, 6 months): <0.05
Impurity 3 ([4]; 25° C./60% RH, 6 months): <0.05
Impurity 4 ([4]; 25° C./60% RH, 6 months): <0.05
Impurity 5 ([4]; 25° C./60% RH, 6 months): <0.05
Impurity 6 ([4]; 25° C./60% RH, 6 months): <0.05
Impurity 7 ([4]; 25° C./60% RH, 6 months): <0.05
anamorelin (HPLC purity) ([4]; 25° C./60% RH, 6 months): 100.0%
Impurity 1 ([4]; 40° C./75% RH, 1 month): <0.05
Impurity 2 ([4]; 40° C./75% RH, 1 month): <0.05
Impurity 3 ([4]; 40° C./75% RH, 1 month): <0.05
Impurity 4 ([4]; 40° C./75% RH, 1 month): <0.05
Impurity 5 ([4]; 40° C./75% RH, 1 month): <0.05
Impurity 6 ([4]; 40° C./75% RH, 1 month): <0.05
Impurity 7 ([4]; 40° C./75% RH, 1 month): <0.05
anamorelin (HPLC purity) ([4]; 40° C./75% RH, 1 month): 100.0%
Impurity 1 ([4]; 40° C./75% RH, 3 months): <0.05
Impurity 2 ([4]; 40° C./75% RH, 3 months): <0.05
Impurity 3 ([4]; 40° C./75% RH, 3 months): <0.05
Impurity 4 ([4]; 40° C./75% RH, 3 months): <0.05
Impurity 5 ([4]; 40° C./75% RH, 3 months): <0.05
Impurity 6 ([4]; 40° C./75% RH, 3 months): <0.05
Impurity 7 ([4]; 40° C./75% RH, 3 months): <0.05
anamorelin (HPLC purity) ([4]; 40° C./75% RH, 3 months): 100.0%
Impurity 1 ([4]; 40° C./75% RH, 6 months): <0.05
Impurity 2 ([4]; 40° C./75% RH, 6 months): <0.05
Impurity 3 ([4]; 40° C./75% RH, 6 months): <0.05
Impurity 4 ([4]; 40° C./75% RH, 6 months): <0.05
Impurity 5 ([4]; 40° C./75% RH, 6 months): <0.05
Impurity 6 ([4]; 40° C./75% RH, 6 months): <0.05
Impurity 7 ([4]; 40° C./75% RH, 6 months): <0.05
anamorelin (HPLC purity) ([4]; 40° C./75% RH, 6 months): 100.0%
Impurity 1 ([4]; Initial): <0.05
Impurity 2 ([4]; Initial): <0.05
Impurity 3 ([4]; Initial): <0.05
Impurity 4 ([4]; Initial): <0.05
Impurity 5 ([4]; Initial): <0.05
Impurity 6 ([4]; Initial): <0.05
Impurity 7 ([4]; Initial): <0.05
anamorelin (HPLC purity) ([4]; Initial): 100.0%
SMILES: CN(C)N(C)C(=O)[C@@]1(Cc2ccccc2)CCCN(C(=O)[C@@H](Cc2c[nH]c3ccccc23)NC(=O)C(C)(C)N)C1 [anamorelin]
